SMILES strings stand for the structures. ≈ marks a conversion by molar mass, not a printed value. Where two headings read alike, the source gives them in different places.

Data set [1] is described as follows: Lyophilisation solubility assay (Lysa). It is filed as physicochemical. As to conditions: thermodynamic from solid. As for the experimental part: The aqueous solubility is an important physico-chemical property that plays a significant role in various physical and biological processes. It is desirable to have good solubility which enables good permeability and gastric and intestinal absorption, linear dose proportionality, less PK variability, and easy formulation for PD/PK studies. […] Lyophilisation solubility assay (Lysa) is a well adopted high throughput assay to measure compound solubility in industry.
Samples are prepared in duplicate from 10 mM DMSO stock solutions. After evaporation of DMSO with a centrifugal vacuum evaporator, the residue is solved in 0.05 M phosphate buffer (pH 6.5), stirred for one hour and then shook for two hours. After one night, the solution is filtered using a microtiter filter plate and then the filtrate and its 1/10 dilution are then analyzed by direct UV measurement or by HPLC-UV. In addition a four-point calibration curve is prepared from the 10 mM stock solutions and used for the solubility determination of the compounds. The results are in μg/ml. In case the percentage of sample measured in solution after evaporation divided by the calculated maximum of sample amount is bigger than 80% the solubility is reported as bigger than this value.

For data set [2], the system named is HBV replication in HepG2.2.15 cells. Briefly: Anti-HBV activity in vitro in HepG2.2.15 cells (extracellular HBV DNA by qPCR). The data set is classed as cell-based. As to conditions: Hepatitis B virus. The essentials: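 Constitutively HBV-producing HepG2.2.15 cells were seeded overnight at 37 °C, then treated with half-log serial dilutions of compound (0.5% DMSO final) for five days. Supernatant HBV DNA was extracted and quantified by qPCR; EC50 is the concentration inhibiting HBV replication by 50%.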
(In general: Real-time PCR tracks product formation cycle by cycle.)

Data set [3] is described as follows: Human microsomal clearance assay. The data set is classed as in vitro ADME. To be noted: human, 1 μM, pH 7.4. How it is done: Microsomes were preincubated with test compound for 10 minutes at 37° C. in 100 mM phosphate buffer with pH 7.4. The reactions were initiated by adding NADPH regenerating system to give a final incubation volume of 400 μL. The incubations finally contained 1 μM test compound, 0.5 mg/mL liver microsomal protein, 3.0 mM glucose 6-phosphate, 1.0 mM NADP, 3.0 mM MgCl2 and 0.05 mg/mL glucose 6-phosphate dehydrogenase in 100 mM phosphate buffer with pH 7.4. After incubation times of 0, 3, 6, 9, 15 and 30 minutes, 50 μL, incubation was transferred to the quench solution containing the internal standard which was 2 μM tolbutamide. After precipitation and centrifugation, test compound concentrations in the samples were determined by LC-MS/MS. Controls of no NADPH regenerating system at zero and 30 minutes were also prepared and analyzed.

[4] abbreviates: HepG2.2.15, Anti-HBV activity in HepG2.2.15 cells, read-out: EC50.

What is called EC50 is the concentration giving half of the maximal effect. Turning to `COC(=O)C1=C(CN2[C@@H]3COC[C@H]2CC(OCC(=O)O)C3)NC(c2nccs2)=N[C@H]1c1ccc(F)cc1Cl` (stereo partly drawn) [Example 46, 2-[[(1R,5S)-9-[[(4R)-4-(2-chloro-4-fluoro-phenyl)-5-methoxycarbonyl-2-thiazol-2-yl-1,4-dihydropyrimidin-6-yl]methyl]-3-oxa-9-azabicyclo[3.3.1]nonan-7-yl]oxy]acetic acid], the solubility thermodynamic in data set [1] (pH 6.5, aqueous buffer) was > 685 µg/mL. In addition, in data set [2] (setting [4]), the EC50 is 86.6 nM. In data set [3], this compound returned a CLh of 4.0 mL/min/kg.
As for `COC(=O)C1=C(CN2[C@@H]3CC[C@H]2C[C@@H](O)C3)NC(c2nccs2)=N[C@H]1c1ccc(F)cc1Cl` [Example 44, (R)-4-(2-Chloro-4-fluoro-phenyl)-6-((1R,3R,5S)-3-hydroxy-8-aza-bicyclo[3.2.1]oct-8-ylmethyl)-2-thiazol-2-yl-1,4-dihydro-pyrimidine-5-carboxylic acid methyl ester], in data set [1] (pH 6.5, aqueous buffer), the solubility thermodynamic was > 623 µg/mL. Besides, the CLh in data set [3] was determined as 7.1 mL/min/kg.
`COC(=O)C1=C(CN2[C@@H]3COC[C@H]2C[C@@H](CC(=O)O)C3)NC(c2nccs2)=N[C@H]1c1cccc(F)c1Cl` [Example 55, 2-[(1R,5)-9-[[(4R)-4-(2-chloro-3-fluoro-phenyl)-5-methoxycarbonyl-2-thiazol-2-yl-1,4-dihydropyrimidin-6-yl]methyl]-3-oxa-9-azabicyclo[3.3.1]nonan-7-yl]acetic acid] displayed a solubility thermodynamic in data set [1] (pH 6.5, aqueous buffer) of 505 µg/mL (≈ 920 µM). For the same compound, in data set [2] (setting [4]), the EC50 was 22.3 nM. The compound also registered a CLh in data set [3] of 0 mL/min/kg.
Consider `COC(=O)C1=C(CN2C3COCC2CC(C(=O)O)C3)NC(c2nc(C)cs2)=N[C@H]1c1ccc(F)cc1Cl` (stereo partly drawn) [Example 2, 9-[(R)-6-(2-Chloro-4-fluoro-phenyl)-5-methoxycarbonyl-2-(4-methyl-thiazol-2-yl)-3,6-dihydro-pyrimidin-4-ylmethyl]-3-oxa-9-aza-bicyclo[3.3.1]nonane-7-carboxylic acid], for which the solubility thermodynamic in data set [1] (pH 6.5, aqueous buffer) came out at 450 µg/mL (≈ 820 µM). In addition, the EC50 in data set [2] (setting [4]) is 114 nM. Moreover, in data set [3], the CLh came to 3.2 mL/min/kg.
In the same order, the values of `COC(=O)C1=C(CN2[C@@H]3CC[C@@]2(C(=O)O)CC3(F)F)NC(c2nccs2)=N[C@H]1c1ccc(F)cc1Cl` [Example 149, (1R,4S)-7-[[(4R)-4-(2-chloro-4-fluoro-phenyl)-5-methoxycarbonyl-2-thiazol-2-yl-1,4-dihydropyrimidin-6-yl]methyl]-2,2-difluoro-7-azabicyclo[2.2.1]heptane-4-carboxylic acid] are > 665 µg/mL, 4 nM and 3.4 mL/min/kg.
Regarding `COC(=O)C1=C(CN2C3COCC2CC(C(=O)O)C3)NC(c2nccs2)=NC1c1ccc(F)c(F)c1` (stereo not drawn) [Example 3, 9-[6-(3,4-Difluoro-phenyl)-5-methoxycarbonyl-2-thiazol-2-yl-3,6-dihydro-pyrimidin-4-ylmethyl]-3-oxa-9-aza-bicyclo[3.3.1]nonane-7-carboxylic acid], the solubility thermodynamic in data set [1] (pH 6.5, aqueous buffer) is > 678 µg/mL. In addition, the EC50 in data set [2] (setting [4]) turned out to be 400 nM. Moreover, the CLh in data set [3] is 0 mL/min/kg.
As for `CCOC(=O)C1=C(CN2C3COCC2CC(CC(=O)O)C3)NC(c2nccs2)=N[C@H]1c1ccc(F)c(F)c1` (stereo partly drawn) [Example 29, (S)-6-(7-Carboxymethyl-3-oxa-9-aza-bicyclo[3.3.1]non-9-ylmethyl)-4-(3,4-difluoro-phenyl)-2-thiazol-2-yl-1,4-dihydro-pyrimidine-5-carboxylic acid ethyl ester], in data set [1] (pH 6.5, aqueous buffer), the solubility thermodynamic was > 600 µg/mL. For the same compound, the EC50 in data set [2] (setting [4]) was found to be 34.3 nM. Besides, the CLh in data set [3] was 1.7 mL/min/kg.
On the same counts, the results for `COC(=O)C1=C(CN2C3COCC2C(C(=O)O)C3)NC(c2nccs2)=N[C@H]1c1ccc(F)cc1Cl` (stereo partly drawn) [Example 6, 8-[(R)-6-(2-Chloro-4-fluoro-phenyl)-5-methoxycarbonyl-2-thiazol-2-yl-3,6-dihydro-pyrimidin-4-ylmethyl]-3-oxa-8-aza-bicyclo[3.2.1]octane-6-carboxylic acid] are > 665 µg/mL, 32 nM and 0.5 mL/min/kg.
`COC(=O)C1=C(CN2[C@H]3CC[C@]2(C(=O)O)COC3)NC(c2nccs2)=N[C@H]1c1ccc(F)c(F)c1C` [Example 84, (1S,5R)-8-[[(4S)-4-(3,4-difluoro-2-methyl-phenyl)-5-methoxycarbonyl-2-thiazol-2-yl-1,4-dihydropyrimidin-6-yl]methyl]-3-oxa-8-azabicyclo[3.2.1]octane-5-carboxylic acid]: the solubility thermodynamic in data set [1] (pH 6.5, aqueous buffer) is > 643 µg/mL. The EC50 in data set [2] (setting [4]) was found to be 37.6 nM. For the same compound, the CLh in data set [3] is 0 mL/min/kg.
In the same order, the values of `COC(=O)C1=C(CN2[C@@H]3C[C@H](CC(=O)O)C[C@H]2C(F)(F)C3)NC(c2nccs2)=N[C@H]1c1ccc(F)c(F)c1` [Example 114, 2-[(1R,3S,5S)-8-[[(4S)-4-(3,4-difluorophenyl)-5-methoxycarbonyl-2-thiazol-2-yl-1,4-dihydropyrimidin-6-yl]methyl]-6,6-difluoro-8-azabicyclo[3.2.1]octan-3-yl]acetic acid] are 224 µg/mL (≈ 405 µM), 6.3 nM and 1.2 mL/min/kg.
The compound `COC(=O)C1=C(CN2C3COCC2CN(C(C)=O)C3)NC(c2nccs2)=N[C@H]1c1ccc(F)cc1Cl` [Example 15, (R)-6-(7-Acetyl-3-oxa-7,9-diaza-bicyclo[3.3.1]non-9-ylmethyl)-4-(2-chloro-4-fluoro-phenyl)-2-thiazol-2-yl-1,4-dihydro-pyrimidine-5-carboxylic acid methyl ester] yielded a solubility thermodynamic in data set [1] (pH 6.5, aqueous buffer) of 233 µg/mL (≈ 436 µM). The EC50 in data set [2] (setting [4]) came out at 43 nM.
On the same counts, the results for `COC(=O)C1=C(CN2C3CSCC2CC(CC(=O)O)C3)NC(c2nccs2)=N[C@H]1c1ccc(F)cc1Cl` (stereo partly drawn) [Example 42, 6-(7-Carboxymethyl-3-thia-9-aza-bicyclo[3.3.1]non-9-ylmethyl)-4-(2-chloro-4-fluoro-phenyl)-2-thiazol-2-yl-1,4-dihydro-pyrimidine-5-carboxylic acid methyl ester] are 188 µg/mL (≈ 333 µM) and 54.5 nM.
Take `COC(=O)C1=C(CN2C3COCC2CN(C(C)C)C3)NC(c2nccs2)=N[C@H]1c1ccc(F)cc1Cl` [Example 13, (R)-4-(2-Chloro-4-fluoro-phenyl)-6-(7-isopropyl-3-oxa-7,9-diaza-bicyclo[3.3.1]non-9-ylmethyl)-2-thiazol-2-yl-1,4-dihydro-pyrimidine-5-carboxylic acid methyl ester]: the solubility thermodynamic in data set [1] (pH 6.5, aqueous buffer) came out at 313 µg/mL (≈ 586 µM). The EC50 in data set [2] (setting [4]) turned out to be 270 nM.
In the same order, the values of `COC(=O)C1=C(CN2C3CNC(=O)CC2COC3)NC(c2nccs2)=N[C@H]1c1ccc(F)cc1Cl` (stereo partly drawn) [Example 34, (R)-4-(2-Chloro-4-fluoro-phenyl)-6-(4-oxo-8-oxa-3,10-diaza-bicyclo[4.3.1]dec-10-ylmethyl)-2-thiazol-2-yl-1,4-dihydro-pyrimidine-5-carboxylic acid methyl ester] are 263 µg/mL (≈ 506 µM) and 42 nM.
For the compound `COC(=O)C1=C(CN2CC3CC2CN3C(C)=O)NC(c2nccs2)=N[C@H]1c1ccc(F)cc1Cl` (stereo partly drawn) [Example 41, (R)-6-(5-Acetyl-2,5-diaza-bicyclo[2.2.1]hept-2-ylmethyl)-4-(2-chloro-4-fluoro-phenyl)-2-thiazol-2-yl-1,4-dihydro-pyrimidine-5-carboxylic acid methyl ester], the solubility thermodynamic in data set [1] (aqueous buffer, 0.05 M phosphate buffer (pH 6.5), reported as bigger than the value if more than 80% of the sample is in solution, read-out: Lysa) was > 552 µg/mL. The response in data set [2] (HepG2.2.15) was half-maximal at 133 nM (EC50).

The values above are taken from patent US9266904B2, “6-bridged heteroaryldihydropyrimidines for the treatment and prophylaxis of hepatitis B virus infection” (priority 2013, dated 2016).
